Data from patent EP0050407A1, “3,5-Disubstituted-1,2,4-triazole compounds, processes for their preparation and pharmaceutical compositions containing them” (GLAXO GROUP LIMITED, priority 1980, dated 1982).
Where a name gives a salt, the structure may show the parent alone.

Key:
[1] = tested on: secretion of gastric acid; assay: perfused rat stomach test (inhibition of gastric acid secretion stimulated via histamine receptors); format: in vivo
Text: Certain novel heterocyclic derivatives have now been found which have potent activity as H2-antagonists.

rats = assay: toxicity in rats; format: in vivo
[2] = administered intravenously to rats at doses of at least twice their ED50 values

Row | Compound | ED50 [1] [mg/kg] | toxic effects (rats; [2]) | toxic effects (rats; administered orally to rats at a dose of 400 mg/kg)
1 | ON=Cc1n[nH]c(CCCCOc2cccc(CN3CCCCC3)c2)n1 [Example 9, 5-[4-[3-(1-Piperidinylmethyl)phenoxy]butyl]-1H-1,2,4,- triazole-3-carboxaldehyde oxime] | < 0.63 | no toxic effects | 
2 | CS(=O)(=O)Cc1n[nH]c(CCCCOc2cccc(CN3CCCCC3)c2)n1 [Example 7, 3-(Methylsulphonyl)methyl-5-[4-[3-(1-piperidinylmethyl)phenoxy]butyl]-lH-l,2,4-triazole] | < 0.63 | no toxic effects | 
3 | O=Cc1n[nH]c(CCCCOc2cccc(CN3CCCCC3)c2)n1 [Example 8, 5-[4-[3-(1-Piperidinylmethyl)phenoxy]butyl]-1H-1,2,4-triazole-3-carboxaldehyde hydrate] | < 0.63 |  | 
4 | CC(=O)OCc1n[nH]c(CCCCOc2cccc(CN3CCCCC3)c2)n1 [Example 3, 5-[4-[3-(1-Piperidinylmethyl)phenoxy]butyl]-1H-1,2,4-triazole-3-methanol acetate(ester)fumarate] | < 0.63 |  | 
5 | CC(O)c1n[nH]c(CCCCOc2cccc(CN3CCCCC3)c2)n1 (stereo not shown) [2(e), 5-[4-[3-(1-piperidinylmethyl)phenoxy]butyl]-1H-1,2,4-triazole-3-(1-ethanol)oxalate (1:2)] | < 0.63 |  | 
6 | OCCc1n[nH]c(CCCCOc2cccc(CN3CCCCC3)c2)n1 [2(a), 5-[4-[3-(1-Piperidinylmethyl)phenoxy]butyl]-1H-1,2,4-triazole-3-(2-ethanol) maleate (1:2)] | < 0.63 |  | 
7 | OCc1n[nH]c(CCCCOc2cccc(CN3CCCCC3)c2)n1 [Example 6] | < 0.63 |  | no toxic effects
